We go through one substance from patent publication US20240009272A1, “METHODS, SYSTEMS, AND COMPOSITIONS FOR LEGUME-BASED PRODUCTION OF THERAPEUTIC PROTEINS AND THERAPEUTIC MEDICAL MATERIALS” (Arizona Board of Regents on Behalf of The University of …, priority 2017, published 2024).

A short description of the experiment: Stability of rhEGF in soymilk, read out by bioactivity on Hela cell EGFR. It is filed as physicochemical. The following applies: in soymilk over 24 hours; Hela cell EGFR abundance. The procedure:
Hela cells (obtained from American Tissue Culture Collection) were cultured in Minimum Essential Media (MEM) complemented with 10% Fetal Bovine Serum (FBS), 100 units/ml penicillin, and 100 μg/ml streptomycin. For the western blotting assay, cells grown in a 6-well plate were kept in serum-free MEM media for 24 hours. Cells were then either kept in a serum-free medium (control) or stimulated with soy milk alone, soy EGF, or commercial recombinant human EGF for different time periods as indicated. Cells were lysed by directly adding 1×SDS sample buffer (50 mM Tris-HCl, pH 6.8, 10% glycerol, 2% SDS, and 5% β-ME) to the cells after washing 3 times with 1×PBS. EGF bio-activity was determined via EGFR phosphorylation and downstream AKT phosphorylation. Total EGFR was also measured since EGFR is known to undergo internalization when stimulated with EGF. Antibodies used in western blot are anti-p-EGFR (Tyr1068) (#2234, Cell Signaling Technology), anti-total EGFR (#06-847, Millipore), anti-p-AKT (#4060, Cell Signaling Technology) and anti-Lamin B1 (#13435, Cell Signaling Technology). […] EGFR was labeled using an anti-EGFR antibody (#4267, Cell Signaling Technology) and detected with Alexa Fluor 594 Goat anti-rabbit IgG (#A11012, Life Technologies). […]

In the case of “rhEGF: commercial recombinant human EGF (Gibco, Life Technologies), used as positive control”, the “bioactivity of rhEGF kept in soymilk versus control rhEGF” value is “same bioactivity as control recombinant rhEGF”.
